Test results as given in article PMC11249646, “Small-Molecule Disruptors of the Interaction between Calcium- and Integrin-Binding Protein 1 and Integrin αIIbβ3 as Novel Antiplatelet Agents” (ACS Pharmacology & Translational Science, 2024).
Read-outs that look alike come from different tables or passages of the source.

Assays:
[1] = biological target: T1, CIB1 and αIIb interaction (CIB1-GST : F-αIIb peptide) (Homo sapiens, UniProt Q99828); assay: FP assay, 1536-well qHTS format (primary and confirmatory screen); assay type: binding; conditions: for CONFIRMATORY SCREEN Curve Class / Curve Class (confirmatory screen): qHTS curve class
T1 construct: made in house; host or cells: BL-21 plus RIL cells (E. coli)
T1 sequence (Q99828 1-191): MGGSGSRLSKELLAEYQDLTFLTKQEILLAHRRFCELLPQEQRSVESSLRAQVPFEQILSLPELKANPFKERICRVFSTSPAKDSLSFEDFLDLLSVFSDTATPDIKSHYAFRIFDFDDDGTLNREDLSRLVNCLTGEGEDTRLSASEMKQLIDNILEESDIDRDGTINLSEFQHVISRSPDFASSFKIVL

[2] = biological target: T2, GST-CIB1 : F-scrambled peptide (Homo sapiens, UniProt Q99828); assay: FP scrambled-peptide counter screen, 1536-well format; assay type: binding; conditions: for COUNTERSCREEN Curve Class / Curve Class (counterscreen): qHTS curve class; for Confirm? (counterscreen): YES/NO
T2 construct: made in house; host or cells: BL-21 plus RIL cells (E. coli)
T2 sequence (Q99828 1-191): T1 sequence (Q99828 1-191)

[3] = confirmatory screen, negative sign = inhibitory curve
[4] = qHTS primary screen hits, Table S2, negative = inhibition
[5] = qHTS primary screen hits, Table S2, negative sign = inhibitory curve, several classes where COUNT > 1
[6] = qHTS primary screen hits, Table S2, read-out: IC50
[7] = scrambled-peptide counterscreen
[8] = confirmatory screen, read-out: IC50 [μM] (confirmatory screen)
[9] = counterscreen, negative sign = inhibitory curve
[10] = qHTS FP screen hits, Table S2, negative = inhibition
[11] = qHTS FP screen hits, Table S2, one class per curve where COUNT > 1, negative sign = inhibitory curve
[12] = qHTS FP screen hits, Table S2, read-out: IC50
[13] = counterscreen, read-out: IC50 [μM] (counterscreen)
[14] = Table S3, confirmatory screen, YES/NO call
[15] = Table S3, confirmatory screen, a negative sign marks inhibitory curves
[16] = Table S3, confirmatory screen, negative = inhibition
[17] = Table S3, confirmatory screen, read-out: IC50 [μM] (confirmatory screen)
[18] = Table S3, counterscreen, a negative sign marks inhibitory curves
[19] = Table S3, counterscreen, negative = inhibition
[20] = Table S3, counterscreen, read-out: IC50 [μM] (counterscreen)

O=c1oc2ccccc2c(O)c1C(CC(O)c1ccc(-c2ccc(Br)cc2)cc1)c1ccccc1 (stereo not shown) [NCGC00163939-02]
CONFIRMATORY SCREEN Confirm? ([1]; confirmatory screen, YES/NO call): YES | CONFIRMATORY SCREEN Curve Class [1, 3]: -1.2 | CONFIRMATORY SCREEN Efficacy (%) ([1]; confirmatory screen, negative = inhibition): -37% | IC50 ([1]; confirmatory screen, read-out: CONFIRMATORY SCREEN IC50): 12.6 µM | Efficacy (%) [1, 4]: -58% | Curve Class [1, 5]: -2.2 | IC50 [1, 6]: 79.4 µM | COUNTERSCREEN Efficacy (%) [2, 7]: 109% | COUNTERSCREEN Confirm? ([2]; scrambled-peptide counterscreen, YES/NO call): YES | COUNTERSCREEN Curve Class [2, 7]: 3 | IC50 ([2]; scrambled-peptide counterscreen, read-out: COUNTERSCREEN IC50): 89.1 µM

CSc1cc2c(s1)c1cnn(Cc3cccc(N)c3)c(=O)c1n2C.O=C(O)C(F)(F)F [NCGC00188341-01]
Efficacy (%) (confirmatory screen) ([1]; confirmatory screen): -133% | Confirm? (confirmatory screen) ([1]; confirmatory screen, YES/NO): YES | Curve Class (confirmatory screen) [1, 3]: -2.1 | IC50 [1, 8]: 39.8 µM | Efficacy (%) [1, 4]: -65% | Curve Class [1, 5]: -1.2 | IC50 [1, 6]: 20 µM | Efficacy (%) (counterscreen) ([2]; counterscreen): 0% | Confirm? (counterscreen) ([2]; counterscreen): YES | Curve Class (counterscreen) [2, 9]: 4

O=c1nc(-c2ccccn2)sc2ccccc12 [NCGC00387147-01]
Efficacy (%) (confirmatory screen) ([1]; confirmatory screen): -28% | Confirm? (confirmatory screen) ([1]; confirmatory screen, YES/NO): YES | Curve Class (confirmatory screen) [1, 3]: -2.4 | IC50 [1, 8]: 44.7 µM | Efficacy (%) [1, 10]: -72% | Curve Class [1, 11]: -1.2 | IC50 [1, 12]: 28.2 µM | Efficacy (%) (counterscreen) ([2]; counterscreen): 0% | Confirm? (counterscreen) ([2]; counterscreen): YES | Curve Class (counterscreen) [2, 9]: 4

CCOC(=O)c1[nH]c2c(c1C)C(=S)CC(c1ccco1)C2.O=C(O)C(F)(F)F (stereo not shown) [NCGC00238571-01]
Efficacy (%) (confirmatory screen) ([1]; confirmatory screen): -73% | Confirm? (confirmatory screen) ([1]; confirmatory screen, YES/NO): YES | Curve Class (confirmatory screen) [1, 3]: -1.2 | IC50 [1, 8]: 35.5 µM | Efficacy (%) [1, 4]: -69% | Curve Class [1, 5]: -2.2 | IC50 [1, 6]: 50.1 µM | Efficacy (%) (counterscreen) ([2]; counterscreen): -30% | Curve Class (counterscreen) [2, 9]: -1.4 | IC50 [2, 13]: 7.1 µM

Cc1ccc2c(c1)/C(=C\C(=O)c1cccs1)C(=O)N2.O=C(O)C(F)(F)F [NCGC00479180-01]
Confirm? (confirmatory screen) [1, 14]: YES | Curve Class (confirmatory screen) [1, 15]: -1.2 | Efficacy (%) (confirmatory screen) [1, 16]: -57% | IC50 [1, 17]: 11.2 µM | Efficacy (%) [1, 4]: -36% | Curve Class [1, 5]: -1.4 | IC50 [1, 6]: 15.8 µM | Curve Class (counterscreen) [2, 18]: -2.4 | Efficacy (%) (counterscreen) [2, 19]: -64% | IC50 [2, 20]: 11.2 µM

O=C(O)c1cnn(-c2nc3cc(Cl)c(OC(F)(F)F)cc3[nH]2)c1 [NCGC00484069-01]
Efficacy (%) (confirmatory screen) ([1]; confirmatory screen): -39% | Confirm? (confirmatory screen) ([1]; confirmatory screen, YES/NO): YES | Curve Class (confirmatory screen) [1, 3]: -2.4 | IC50 [1, 8]: 44.7 µM | Efficacy (%) [1, 10]: -33% | Curve Class [1, 11]: -1.2 | IC50 [1, 12]: 28.2 µM | Efficacy (%) (counterscreen) ([2]; counterscreen): -15% | Confirm? (counterscreen) ([2]; counterscreen): YES | Curve Class (counterscreen) [2, 9]: 4

COc1cc(Nc2c(C#N)cnc3cc(OCCCN4CCN(C)CC4)c(OC)cc23)c(Cl)cc1Cl [NCGC00241107-05]
Efficacy (%) (confirmatory screen) ([1]; confirmatory screen): -73% | Confirm? (confirmatory screen) ([1]; confirmatory screen, YES/NO): YES | Curve Class (confirmatory screen) [1, 3]: -2.2 | IC50 [1, 8]: 44.7 µM | Efficacy (%) [1, 10]: -33% | Curve Class [1, 11]: -2.2 | IC50 [1, 12]: 50.1 µM | Efficacy (%) (counterscreen) ([2]; counterscreen): -37% | Curve Class (counterscreen) [2, 9]: -1.4 | IC50 [2, 13]: 20 µM

Cl.Nc1cc(C(F)(F)F)ccc1S [NCGC00262926-01]
Efficacy (%) (confirmatory screen) ([1]; confirmatory screen): -117% | Confirm? (confirmatory screen) ([1]; confirmatory screen, YES/NO): YES | Curve Class (confirmatory screen) [1, 3]: -1.1 | IC50 [1, 8]: 22.4 µM | Efficacy (%) [1, 4]: -84% | Curve Class [1, 5]: -1.1 | IC50 [1, 6]: 28.2 µM | Efficacy (%) (counterscreen) ([2]; counterscreen): -35% | Confirm? (counterscreen) ([2]; counterscreen): YES | Curve Class (counterscreen) [2, 9]: -1.4 | IC50 [2, 13]: 12.6 µM

Cc1ccc(CNc2ncnc3ccc(-c4ccc([C@@H](C)O)o4)cc23)o1 [NCGC00189251-01]
Efficacy (%) (confirmatory screen) ([1]; confirmatory screen): -58% | Confirm? (confirmatory screen) ([1]; confirmatory screen, YES/NO): YES | Curve Class (confirmatory screen) [1, 3]: -1.2 | IC50 [1, 8]: 28.2 µM | Efficacy (%) (counterscreen) ([2]; counterscreen): -36% | Curve Class (counterscreen) [2, 9]: -2.2 | IC50 [2, 13]: 39.8 µM

OCc1ccc(-c2ccc(-c3ccc(CO)s3)o2)s1 [NCGC00159570-01]
Curve Class (confirmatory screen) [1, 15]: 2.4 | Efficacy (%) (confirmatory screen) [1, 16]: 58% | Efficacy (%) [1, 4]: -57% | Curve Class [1, 5]: -3 | IC50 [1, 6]: 34.1 µM | Efficacy (%) (counterscreen) [2, 19]: 97% | IC50 [2, 20]: 50.1 µM

COc1ccc(NC(=O)c2[nH]c(C)c(C(C)=O)c2C)cc1S(=O)(=O)Nc1ccccc1C#N [NCGC00348145-01]
Efficacy (%) (confirmatory screen) ([1]; confirmatory screen): -41% | Confirm? (confirmatory screen) ([1]; confirmatory screen, YES/NO): YES | Curve Class (confirmatory screen) [1, 3]: -2.2 | IC50 [1, 8]: 35.5 µM | Efficacy (%) [1, 10]: -21% | IC50 [1, 12]: 31.6 µM | Efficacy (%) (counterscreen) ([2]; counterscreen): 157% | Confirm? (counterscreen) ([2]; counterscreen): YES | Curve Class (counterscreen) [2, 9]: 3 | IC50 [2, 13]: 39.8 µM

O=C(O)CSc1cc(NS(=O)(=O)c2ccc(Br)cc2)c2ccccc2c1O [NCGC00386409-01]
Efficacy (%) (confirmatory screen) ([1]; confirmatory screen): -92% | Confirm? (confirmatory screen) ([1]; confirmatory screen, YES/NO): YES | Curve Class (confirmatory screen) [1, 3]: -1.1 | IC50 [1, 8]: 12.6 µM | Efficacy (%) [1, 10]: -87% | Curve Class [1, 11]: -2.2 | IC50 [1, 12]: 44.7 µM | Efficacy (%) (counterscreen) ([2]; counterscreen): -60% | Curve Class (counterscreen) [2, 9]: -1.2 | IC50 [2, 13]: 5 µM

COc1ccc(CC(NC(C)=O)C(=O)O)cc1 (stereo not shown) [NCGC00384987-01]
Confirm? (confirmatory screen) [1, 14]: YES | Curve Class (confirmatory screen) [1, 15]: -2.2 | Efficacy (%) (confirmatory screen) [1, 16]: -65% | IC50 [1, 17]: 50.1 µM | Efficacy (%) [1, 10]: -58% | Curve Class [1, 11]: -2.2 | IC50 [1, 12]: 56.2 µM | Curve Class (counterscreen) [2, 18]: -2.1 | Efficacy (%) (counterscreen) [2, 19]: -105% | IC50 [2, 20]: 79.4 µM

Cc1ccc(OCCn2c(CCNC(=O)c3ccsc3)nc3ccccc32)cc1.O=C(O)C(F)(F)F [NCGC00238707-01]
Curve Class (confirmatory screen) [1, 15]: 3 | Efficacy (%) (confirmatory screen) [1, 16]: 35% | Efficacy (%) [1, 4]: -22% | Curve Class [1, 5]: -1.4 | IC50 [1, 6]: 11.2 µM | Efficacy (%) (counterscreen) [2, 19]: 109% | IC50 [2, 20]: 50.1 µM

CNc1nc2c(s1)C(c1c(F)cccc1Cl)CC(=O)N2.O=C(O)C(F)(F)F (stereo not shown) [NCGC00488265-02]
Curve Class (confirmatory screen) [1, 15]: 4 | Efficacy (%) (confirmatory screen) [1, 16]: -12% | Efficacy (%) [1, 4]: -65% | Curve Class [1, 5]: -2.2 | IC50 [1, 6]: 56.2 µM | Curve Class (counterscreen) [2, 18]: 4 | Efficacy (%) (counterscreen) [2, 19]: 0%

COP(=S)(OC)SCN1C(=O)c2ccccc2C1=O [NCGC00080392-05]
Efficacy (%) (confirmatory screen) ([1]; confirmatory screen): -50% | Confirm? (confirmatory screen) ([1]; confirmatory screen, YES/NO): YES | Curve Class (confirmatory screen) [1, 3]: -2.2 | IC50 [1, 8]: 50.1 µM | Efficacy (%) [1, 10]: -50% | Curve Class [1, 11]: -1.2 | IC50 [1, 12]: 17.8 µM | Efficacy (%) (counterscreen) ([2]; counterscreen): -33% | Curve Class (counterscreen) [2, 9]: -2.4 | IC50 [2, 13]: 44.7 µM

O=C(O)C(F)(F)F.O=C1CCC2=C1C1(CCCC1)N=C(Nc1nc3ccccc3o1)N2 [NCGC00188036-01]
CONFIRMATORY SCREEN Efficacy (%) ([1]; confirmatory screen): -27% | CONFIRMATORY SCREEN Curve Class ([1]; confirmatory screen): 4 | Efficacy (%) [1, 4]: -24% | Curve Class [1, 5]: -1.4 | IC50 [1, 6]: 2.8 µM | COUNTERSCREEN Efficacy (%) ([2]; counterscreen): -10% | COUNTERSCREEN Curve Class ([2]; counterscreen): 4

CC(C)C(=O)OCc1ccc(-c2nn(Cc3ccccc3)c3ccccc23)o1 [NCGC00479272-01]
Efficacy (%) (confirmatory screen) ([1]; confirmatory screen): -30% | Confirm? (confirmatory screen) ([1]; confirmatory screen, YES/NO): YES | Curve Class (confirmatory screen) [1, 3]: -2.4 | IC50 [1, 8]: 35.5 µM | Efficacy (%) [1, 10]: -25% | IC50 [1, 12]: 25.1 µM | Efficacy (%) (counterscreen) ([2]; counterscreen): -22% | Confirm? (counterscreen) ([2]; counterscreen): YES | Curve Class (counterscreen) [2, 9]: 4
